Molecular target: T1, A2 Adenosine receptor (Rattus norvegicus, UniProt P30543)
T1 construct: membrane preparations derived from the rat phaeochromocytoma cell line PC 12; host or cells: PC 12 (rat phaeochromocytoma)
Test: A2 Adenosine receptor affinity test: displacement of [3H]-NECA from PC 12 cell membranes
Type: binding
Excerpt: (a) A2 Adenosine receptor affinity test This test involves the ability of a test adenosine antagonist to displace the known adenosine mimetic agent [^3 H]-N-ethylcarboxamidoadenosine (NECA) from binding sites on membrane preparations derived from the rat phaeochromocytoma cell line PC 12 (available from the Beatson Institute, Glasgow). […] The membrane preparation is obtained as follows: Frozen pellets of PC12 cells are washed twice with ice cold, buffered, physiological saline and the cells recovered by centrifugation (1500 G) at 3° C. The separated cells are then suspended in hypotonic solution (distilled water), allowed to stand on ice for 30 minutes and are then carefully homogenized using a standard high-speed homogeniser with periodic ice-cooling to obtain a fine suspension. […] A1280). The mixture is then incubated at 37° C. After 20 minutes, the reaction is terminated by dilution with ice-cold buffer and transfer onto ice. The material obtained containing the cell membranes is recovered by centrifugation and washed by resuspension in buffer and recentrifugation. The pellet produced is then resuspended in ice-cold buffer using a hand-driven homogenizer. The resultant membrane suspension is frozen and stored under liquid nitrogen until required. […] After incubation, the samples are rapidly filtered over glass-fibre mats and the filter mats are washed to remove non-receptor-bound radioligand. Receptor-bound radioligand entrapped on the filter mats is then determined by liquid scintillation counting. Filtration and washing are carried out using a conventional vacuum filtration cell harvester. The specific binding (defined as the difference between the total binding and the non-specific binding) in the presence of the particular test compound is determined and compared with the control value.

[1] = read-out: displacement of control binding

T1 sequence (P30543 whole entry): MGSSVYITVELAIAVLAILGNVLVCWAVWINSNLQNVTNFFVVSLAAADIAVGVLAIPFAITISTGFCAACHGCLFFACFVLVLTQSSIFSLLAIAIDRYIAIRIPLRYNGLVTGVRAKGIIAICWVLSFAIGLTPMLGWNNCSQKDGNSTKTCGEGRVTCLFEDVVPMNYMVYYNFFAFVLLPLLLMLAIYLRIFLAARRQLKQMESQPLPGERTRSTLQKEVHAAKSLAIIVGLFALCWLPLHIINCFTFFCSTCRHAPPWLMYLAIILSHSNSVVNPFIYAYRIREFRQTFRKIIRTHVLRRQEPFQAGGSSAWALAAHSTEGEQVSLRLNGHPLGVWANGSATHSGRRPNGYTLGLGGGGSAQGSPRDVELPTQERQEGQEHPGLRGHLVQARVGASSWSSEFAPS

Compound: CN(C)CCN(C)S(=O)(=O)c1ccc(CCNc2nc(N)n3nc(-c4ccco4)nc3n2)cc1 [Example 1, 7-Amino-2-(2-furyl)-5-[2-[(4-dimethylaminoethyl-N,methylsulphonamido)phenyl]ethyl]amino[1,2,4]-triazolo[1,5-a][1,3,5]-triazine]
- IC50 ([3H]-NECA displacement, PC 12 membranes, inferred from displacement at 10^-5 M and 10^-7 M, read-out: pIC50 (indicated by % displacement values) (converted)): < 100 nM
- inhibition at 0.1 µM [1]: 77.7%
- inhibition at 10 µM [1]: 93.7%
